Source: patent US20220249463A1, “METHODS OF ALTERING CARDIAC REMODELING USING COMPOUNDS THAT PROMOTE GLUCOSE OXIDATION” (IMBRIA PHARMACEUTICALS, INC., priority 2019, published 2022)

Tested on: TAC mice
Assay: TAC mice: cardiac fibrosis, Masson's trichrome
Assay type: in vivo
Settings: end of 6-week experiment

`COc1ccc(CN2CCN(CCOC(=O)c3cccnc3)CC2)c(OC)c1OC` [CV-8972, 2-(4-(2,3,4-trimethoxybenzyl)piperazin-1-yl)ethyl nicotinate] was tested. Which “cardiac fibrosis (fibrotic area to whole heart tissue area)” value did it give?
The value was 6.6±0.6%.
